According to ChEMBL document CHEMBL1124256, “Enantiomeric effects of homologues of disoxaril on the inhibitory activity against human rhinovirus-14” (1988):
In brackets after ≈: the same amount, converted by molar mass.

Tested on: Human rhinovirus sp.
Assay: In vitro minimum inhibitory concentration against human rhinovirus-14 (HRV-14)
Format: functional

MIC	Compound
0.03 mg/L (≈ 0.078 µM)	Cc1cc(CCCCCCCOc2ccc(C3=N[C@@H](C(C)C)CO3)cc2)on1
0.52 mg/L (≈ 1.3 µM)	CCCC[C@@H]1COC(c2ccc(OCCCCCCCc3cc(C)no3)cc2)=N1
0.01 mg/L (≈ 0.026 µM)	CCC[C@H]1COC(c2ccc(OCCCCCCCc3cc(C)no3)cc2)=N1
0.06 mg/L (≈ 0.151 µM)	CCCC[C@H]1COC(c2ccc(OCCCCCCCc3cc(C)no3)cc2)=N1
0.03 mg/L (≈ 0.081 µM)	Cc1cc(CCCCCCCOc2ccc(C3=NC(C)(C)CO3)cc2)on1
0.06 mg/L (≈ 0.162 µM)	CC[C@@H]1COC(c2ccc(OCCCCCCCc3cc(C)no3)cc2)=N1
0.03 mg/L (≈ 0.0842 µM)	Cc1cc(CCCCCCCOc2ccc(C3=NC(C)CO3)cc2)on1 (stereo not drawn)
0.07 mg/L (≈ 0.182 µM)	CCC[C@@H]1COC(c2ccc(OCCCCCCCc3cc(C)no3)cc2)=N1
0.01 mg/L (≈ 0.027 µM)	CC[C@H]1COC(c2ccc(OCCCCCCCc3cc(C)no3)cc2)=N1
0.14 mg/L (≈ 0.409 µM)	Cc1cc(CCCCCCCOc2ccc(C3=NCCO3)cc2)on1 [DISOXARIL]
0.2 mg/L (≈ 0.561 µM)	Cc1cc(CCCCCCCOc2ccc(C3=N[C@H](C)CO3)cc2)on1
0.02 mg/L (≈ 0.0561 µM)	Cc1cc(CCCCCCCOc2ccc(C3=N[C@@H](C)CO3)cc2)on1
0.13 mg/L (≈ 0.338 µM)	Cc1cc(CCCCCCCOc2ccc(C3=N[C@H](C(C)C)CO3)cc2)on1
